Experimental data published in article PMC8587071, “Utilization of Sodium Nitroprusside as an Intestinal Permeation Enhancer for Lipophilic Drug Absorption Improvement in the Rat Proximal Intestine” (Molecules, 2021).

What was measured:
rat duodenum = experiment: in vitro sac permeation study, rat duodenum; details: for Papp Ratio (SNP/CTRL): SNP 3 mM pretreatment
Method: (§1) Animal experimental protocols (approval codes: P18-30, P19-09, and P20-14) were carried out in accordance with the Ethical Committee of Tokyo University of Pharmacy and Life Sciences. Male Wistar rats (8 weeks old) were obtained from Tokyo Laboratory Animals Science Co., Ltd. (Tokyo, Japan). Permeation studies of lipophilic drugs were carried out using the in vitro sac method, as previously described.
(§2) Based on these concentrations, the apparent permeability coefficients (Papp) of each test compound were calculated according to the following Equation (1):(1) Pappcm/s=dQ/dt×1/C0S where: • dQ/dt—the flux of the test compound in the serosal side, • C0—the initial concentration in the mucosal side, • S—the surface area of the intestinal lumen.

[1] = in vitro sac permeation study, rat duodenum; details: male, Wistar, rat, 200 μM test compound
Method: as §1, §2

[2] = in vitro sac permeation study, rat jejunum; details: male, Wistar, rat, 200 μM test compound
Method: (§3) Animal experimental protocols (approval codes: P18-30, P19-09, and P20-14) were carried out in accordance with the Ethical Committee of Tokyo University of Pharmacy and Life Sciences. Male Wistar rats (8 weeks old) were obtained from Tokyo Laboratory Animals Science Co., Ltd. (Tokyo, Japan). Permeation studies of lipophilic drugs were carried out using the in vitro sac method, as previously described. […] The serosal samples were collected at 0, 10, 20, 30, 40, 60, 90, and 120 min after administration, and analyzed using a reversed-phase HPLC system (LC-2000Plus; JASCO Co., Tokyo, Japan) or fluorescence microplate reader to determine the concentration of each test compound [15].
as §2

rat jejunum = experiment: in vitro sac permeation study, rat jejunum; details: SNP 3 mM pretreatment
Method: as §3, §2

[3] = in vitro sac permeation study, rat ileum; details: male, Wistar, rat, 200 μM test compound
Method: as §3, §2

rat ileum = experiment: in vitro sac permeation study, rat ileum; details: SNP 3 mM pretreatment
Method: as §3, §2

[4] = in vitro sac permeation study, rat colon; details: male, Wistar, rat, 200 μM test compound
Method: as §3, §2

rat colon = experiment: in vitro sac permeation study, rat colon; details: SNP 3 mM pretreatment
Method: as §3, §2

[5] = Papp SNP, pretreated with SNP 3 mM for 60 min

effect on the SNP enhancement of griseofulvin permeability (rat duodenum; DTT 10 mM for 10 min before SNP 3 mM)	effect of pretreatment on flurbiprofen permeation (rat duodenum; SNP 3 mM 60 min, DTT 10 mM 10 min)	effect of pretreatment on griseofulvin permeation (rat duodenum; SNP or SFC 3 mM 60 min, DTT 10 mM 10 min)	Papp at 120 min, 200 μM ([1]; Papp CTRL, SNP-untreated) [×10⁻⁶ cm/s]	Papp at 120 min, 200 μM [1, 5] [×10⁻⁶ cm/s]	Papp Ratio (SNP/CTRL) (rat duodenum)	Papp at 120 min, 200 μM ([2]; Papp CTRL, SNP-untreated) [×10⁻⁶ cm/s]	Papp at 120 min, 200 μM [2, 5] [×10⁻⁶ cm/s]	Papp Ratio (SNP/CTRL) (rat jejunum)	Papp at 120 min, 200 μM ([3]; Papp CTRL, SNP-untreated) [×10⁻⁶ cm/s]	Papp at 120 min, 200 μM [3, 5] [×10⁻⁶ cm/s]	Papp Ratio (SNP/CTRL) (rat ileum)	Papp at 120 min, 200 μM ([4]; Papp CTRL, SNP-untreated) [×10⁻⁶ cm/s]	Papp at 120 min, 200 μM [4, 5] [×10⁻⁶ cm/s]	Papp Ratio (SNP/CTRL) (rat colon)	Structure (SMILES)	effect on the SNP enhancement of griseofulvin permeability (rat duodenum; c-PTIO 1 mM co-pre-treated with SNP 3 mM)	effect on the SNP-increased FD-4 permeation (rat duodenum; c-PTIO 1 mM with SNP 3 mM)
visibly disappeared	increased	increased	–	–	–	–	–	–	–	–	–	–	–	–	O[C@@H](CS)[C@@H](O)CS (racemic) [DTT, dithiothreitol]	–	–
–	–	–	5.8 ± 1.7	13 ± 2.7	2.24	26 ± 11.9	32.7 ± 12.9	1.26	33.9 ± 11.3	39.8 ± 17.7	1.17	28.3 ± 2.5	19.4 ± 3.7	0.69	CC(C(=O)O)c1ccc(-c2ccccc2)c(F)c1 (centres unmarked) [Flurbiprofen]	–	–
–	–	–	8 ± 4.2	19.6 ± 4.1	2.45	42.2 ± 20	70.3 ± 19.2	1.67	24.3 ± 6	18.4 ± 4.4	0.76	39.6 ± 21.4	31.7 ± 11.1	0.80	COC1=CC(=O)C[C@@H](C)[C@]12Oc1c(Cl)c(OC)cc(OC)c1C2=O [Griseofulvin]	–	–
–	–	–	1.1 ± 0.6	1.3 ± 0.7	1.18	4.7 ± 1	4.3 ± 1.8	0.91	3.7 ± 1	3.9 ± 1	1.05	2.1 ± 1.1	3.5 ± 1.6	1.67	CC(C)NCC(O)COc1cccc2ccccc12 (centres unmarked) [Propranolol]	–	–
–	–	–	–	–	–	–	–	–	–	–	–	–	–	–	CC1(C)N([O])C(c2ccc(C(=O)O)cc2)=[N+]([O-])C1(C)C [c-PTIO, Carboxy-PTIO]	inhibited	disappeared
